{"source": "patent EP4168130B1", "about": "“USE OF INDOLE COMPOUNDS FOR TREATING SIGNS OF SKIN AGING” (Unilever IP Holdings B.V., priority 2020, dated 2021)", "test_system": "primary adult human dermal fibroblasts (HDFs)", "test": "High-throughput compound screen for selective elimination of senescent cells (cell viability, Hoechst 33342 / SYTOX Green high content imaging) in early proliferating (EP) and deeply senescent (DS) fibroblasts", "assay_type": "cell-based", "parameters": "key: senolytic: EP cell viability above the 89% EP threshold and DS cell viability below the 87% DS threshold for at least one concentration of the three serial concentrations; prolifolytic: test compounds which decreased EP cell viability below the 89% EP threshold but did not decrease DS cell viability below 87%; cytotoxic: Test compounds which decreased both EP and DS cell viability below their respective thresholds; non-toxic: test compounds which maintained both EP and DS viability above their respective thresholds", "conditions": "three serial concentrations, 48 hours incubation, read-out five days post compound addition, thresholds 89% EP, 87% DS, for at least one concentration", "protocol": "Actinomycin D, a drug widely reported to induce apoptosis in multiple cell types, was optimised for use as a positive 'senolytic control' for the high-throughput compound screen in EP (0.02µM) and DS (0.2µM) HDFs.\nIn order to perform the high-throughput screen of the test compounds a thorough validation process of the assay was undertaken prior to experimental screening. For both EP and DS HDFs, the following steps were optimised: optimisation of cell seeding densities in 384-well plate format; validation and optimisation of Actinomycin D positive and DMSO-vehicle negative controls; optimisation of high-throughput image acquisition and high content analysis of Hoechst 33342 (ThermoFisher, UK) in combination with SYTOX Green (ThermoFisher, UK) using the INCell 2200 microscope (GE, UK) for cell death phenotypic read-outs; optimisation of liquid handling system protocols; plate uniformity assessments; and a \"dry run\" of all components in the assay. […]\nFollowing successful high-throughput compound screening of the test compounds in both EP and DS HDFs, a number of post-screen quality control checks were employed prior to hit detection. First, negative and positive control inter- and intra-plate cell number variability was assessed in order to identify potential systemic issues. […]", "data": [{"smiles": "O=C(O)Cn1ccc2ccccc21", "note": "[1-indoleacetic acid]", "values": [{"measurement": "hit classification based on EP and DS cell viability", "result": "senolytic"}]}]}
